{"source": "patent US20020069423A1", "about": "(priority 2000, published 2002)", "key": {"[1]": {"biological_target": "PrP^ac (Mus musculus, UniProt P04925)", "sequence (P04925 23-230 limits assumed)": "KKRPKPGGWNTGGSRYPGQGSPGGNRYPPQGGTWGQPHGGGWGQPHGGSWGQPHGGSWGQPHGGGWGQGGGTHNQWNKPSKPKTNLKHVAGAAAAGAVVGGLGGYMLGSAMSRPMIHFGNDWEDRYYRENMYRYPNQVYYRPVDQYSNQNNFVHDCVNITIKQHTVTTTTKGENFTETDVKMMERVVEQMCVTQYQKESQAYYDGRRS", "details": "cell culture; not tested in animal models; cited from earlier work"}, "[2]": {"test_system": "untransfected bovine fetal fibroblasts (BFF cells)", "format": "cell-based"}, "[3]": {"biological_target": "PrP^ac (Mesocricetus auratus, UniProt P04273)", "sequence (P04273 23-231 limits assumed)": "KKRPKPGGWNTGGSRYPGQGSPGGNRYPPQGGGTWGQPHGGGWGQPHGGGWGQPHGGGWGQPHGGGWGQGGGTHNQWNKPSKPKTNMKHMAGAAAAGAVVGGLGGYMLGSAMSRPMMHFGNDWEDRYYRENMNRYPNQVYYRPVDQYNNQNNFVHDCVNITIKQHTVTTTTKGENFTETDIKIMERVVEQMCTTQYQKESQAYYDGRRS", "details": "scrapie-infected hamsters, controlled study; cited from earlier work"}}}
{"compound": "Nc1c(/N=N/c2ccc(-c3ccc(/N=N/c4cc(S(=O)(=O)O)c5ccccc5c4N)cc3)cc2)cc(S(=O)(=O)O)c2ccccc12", "note": "[Congo red]", "values": [{"measurement": "effect on accumulation of PrP^ac", "setting": "[1]", "value": "prevent accumulation of PrP^ac"}]}
{"compound": "CN[C@@H]1[C@@H](O)[C@@H](O[C@@H]2[C@@H](O)[C@H](O[C@H]3O[C@H]([C@@H](C)O)[C@@H](O)[C@H](O)[C@H]3N)[C@@H](N)C[C@H]2N)OC[C@]1(C)O", "note": "[G418, geneticin (G418)]", "values": [{"measurement": "concentration sufficient to kill non-neomycin containing BFF cells but allow rapid growth of BFF cells with transfected neomycin gene", "setting": "[2]", "value": 400, "unit": "µg/mL"}, {"measurement": "concentration that will sufficiently kill non-neomycin containing BEF cells but allow proliferation of cells with transfected neomycin gene", "setting": "[2]", "value": 400, "unit": "µg/mL"}, {"measurement": "lag time in drug selection", "setting": "[2]", "value": "approximately 3 days"}, {"measurement": "time of drug selection until BFF cells were dead", "setting": "[2]", "value": "≤ 3", "unit": "days"}]}
{"compound": "C[C@@H]1[C@H](O)[C@@H](C)/C=C/C=C/C=C/C=C/C=C/C=C/C=C/[C@H](O[C@@H]2O[C@H](C)[C@@H](O)[C@H](N)[C@@H]2O)C[C@@H]2O[C@](O)(C[C@@H](O)C[C@@H](O)[C@H](O)CC[C@@H](O)C[C@@H](O)CC(=O)O[C@H]1C)C[C@H](O)[C@H]2C(=O)O", "note": "[amphotericin B]", "values": [{"measurement": "effect on accumulation of PrP^ac", "setting": "[3]", "value": "delayed the accumulation of PrP^ac"}]}
{"compound": "pentosan polysulfate", "values": [{"measurement": "effect on accumulation of PrP^ac", "setting": "[1]", "value": "prevent accumulation of PrP^ac"}]}
